Consider two molecules from ChEMBL document CHEMBL1142580, “Malettinins B-D: new polyketide metabolites from an unidentified fungal colonist of Hypoxylon Stromata (NRRL 29110)” (2005).

What all share (assay type): functional
Common to all, as to conditions: read-out: IZ

One experiment concerns Candida albicans. Description: Antimicrobial activity against Candida albicans ATCC 90029 at 250 ug/disk by standard disk assay.
A further experiment has as its system Bacillus subtilis. Kind of experiment: Antimicrobial activity against Bacillus subtilis ATCC 6051 at 200 ug/disk by standard disk assay.
The next experiment deals with Staphylococcus aureus. Description: Antimicrobial activity against Staphylococcus aureus ATCC 29213 at 200 ug/disk by standard disk assay.

Consider `Cc1cc(=O)c(O)cc2c1C[C@@H](C)[C@@]1(OC[C@@H](C)[C@H]1O)O2` [MALETTININ C], for which, in the experiment on Candida albicans, the zone of inhibition at 250 µg/disc came out at 13 mm. The zone of inhibition at 200 µg/disc in the experiment with Bacillus subtilis turned out to be 15 mm; with Staphylococcus aureus, 12 mm.
`Cc1cc(=O)c(O)cc2c1C[C@@H](C)[C@]1(OC[C@@H](C)[C@H]1O)O2` [MALETTININ B]: the zone of inhibition at 250 µg/disc in the experiment with Candida albicans is 19 mm. The zone of inhibition at 200 µg/disc came out at 26 mm with Bacillus subtilis and 24 mm with Staphylococcus aureus.
